In patent US11771738B2 (Zoetis Services LLC, priority 2018, dated 2023):
Where two headings read alike, the source gives them in different places.

Tests used:
Type in all cases: cell-based
[1] = test system: microfilariae of Dirofilaria immitis; experiment: Dirofilaria immitis, Microfilaria (DiMf) In Vitro Assay; details: Dirofilaria immitis, 72 h, read-out: DiMf MED, Minimum Effective Dose, D. immitis microfilariae motility, in vitro
D. immitis L4 larvae = experiment: Dirofilaria immitis, L4 Stage (DiL4) In Vitro Assay; details: for minimal effective concentration: Dirofilaria immitis, 72 h, read-out: DiL4 MED, Minimum Effective Dose, D. immitis L4 larvae motility, in vitro; for DiMf/DiL4: larval stage selectivity, ratio of DiMf MED to DiL4 MED
[2] = test system: third stage larvae of Haemonchus contortus; experiment: Haemonchus contortus, Larvae Stage 3 (HcL3) In Vitro Assay; details: Haemonchus contortus, 96 h
[3] = read-out: HcL3 MED (symbol after Ex#), approximately 96 hours incubation, multiple-resistant field isolate
[4] = read-out: HcL3 MED, Minimum Effective Dose, H. contortus third stage larvae, approximately 96 hours
[5] = read-out: HcL3 MED, approximately 96 hours incubation, multiple-resistant field isolate
[6] = read-out: HcL3 MED, Haemonchus contortus third stage larvae in vitro, class mark appended to the Ex # in Table 3

SMILES	minimal effective concentration [1]	minimal effective concentration (D. immitis L4 larvae)	DiMf/DiL4 (D. immitis L4 larvae)	minimal effective concentration [2, 3]	minimal effective concentration [2, 4]	minimal effective concentration [2, 5]	minimal effective concentration [2, 6]
CC(C)C[C@H]1C(=O)O[C@H](Cc2ccc(Cc3ccccc3)cc2)C(=O)N(C)[C@@H](CC(C)C)C(=O)O[C@H](C)C(=O)N(C)[C@@H](CC(C)C)C(=O)O[C@H](Cc2ccccc2)C(=O)N(C)[C@@H](CC(C)C)C(=O)O[C@H](C)C(=O)N1C [Example 2-1, (3S,6R,9S,12R,15S,18R,21S,24R)-6-benzyl-18-(4-benzylbenzyl)-3,9,15,21-tetraisobutyl-4,10,12,16,22,24-hexamethyl-1,7,13,19-tetraoxa-4,10,16,22-tetraazacyclotetracosan-2,5,8,11,14,17,20,23-octaone]	0.02 µM	0.001 µM	20	< 1 µM	0.65 µM	≤ 1 µM	–
CC(C)C[C@H]1C(=O)O[C@H](Cc2ccc(Cc3ccc(F)cc3)cc2)C(=O)N(C)[C@@H](CC(C)C)C(=O)O[C@H](C)C(=O)N(C)[C@@H](CC(C)C)C(=O)O[C@H](Cc2ccccc2)C(=O)N(C)[C@@H](CC(C)C)C(=O)O[C@H](C)C(=O)N1C [Example 2-4, (3S,6R,9S,12R,15S,18R,21S,24R)-6-benzyl-18-(4-(4-fluorobenzyl)benzyl)-3,9,15,21-tetraisobutyl-4,10,12,16,22,24-hexamethyl-1,7,13,19-tetraoxa-4,10,16,22-tetraazacyclotetracosan-2,5,8,11,14,17,20,23-octaone]	0.05 µM	0.0007 µM	71.4	1 to 3.3 µM	3.3 µM	–	–
CCN(CC)C(c1ccc(C[C@H]2OC(=O)[C@H](CC(C)C)N(C)C(=O)[C@@H](C)OC(=O)[C@H](CC(C)C)N(C)C(=O)[C@@H](Cc3ccccc3)OC(=O)[C@H](CC(C)C)N(C)C(=O)[C@@H](C)OC(=O)[C@H](CC(C)C)N(C)C2=O)cc1)c1ccc(F)c(F)c1 (stereo partly drawn) [Example 2-36, (3S,6R,9S,12R,15S,18R,21S,24R)-6-benzyl-18-(4-((diethylamino)(3,4-difluorophenyl)methyl)benzyl)-3,9,15,21-tetraisobutyl-4,10,12,16,22,24-hexamethyl-1,7,13,19-tetraoxa-4,10,16,22-tetraazacyclotetracosan-2,5,8,11,14,17,20,23-octaone]	0.03 µM	0.0002 µM	150	–	1 µM	–	–
COC(c1ccc(C[C@H]2OC(=O)[C@H](CC(C)C)N(C)C(=O)[C@@H](C)OC(=O)[C@H](CC(C)C)N(C)C(=O)[C@@H](Cc3ccccc3)OC(=O)[C@H](CC(C)C)N(C)C(=O)[C@@H](C)OC(=O)[C@H](CC(C)C)N(C)C2=O)cc1)c1ccc(F)c(F)c1 (stereo partly drawn) [Example 2-37, (3S,6R,9S,12R,15S,18R,21S,24R)-6-benzyl-18-(4-((3,4-difluorophenyl)(methoxy)methyl)benzyl)-3,9,15,21-tetraisobutyl-4,10,12,16,22,24-hexamethyl-1,7,13,19-tetraoxa-4,10,16,22-tetraazacyclotetracosan-2,5,8,11,14,17,20,23-octaone]	0.02 µM	0.001 µM	20	1 to 3.3 µM	3.3 µM	–	–
CCOC(c1ccc(C[C@H]2OC(=O)[C@H](CC(C)C)N(C)C(=O)[C@@H](C)OC(=O)[C@H](CC(C)C)N(C)C(=O)[C@@H](Cc3ccccc3)OC(=O)[C@H](CC(C)C)N(C)C(=O)[C@@H](C)OC(=O)[C@H](CC(C)C)N(C)C2=O)cc1)c1ccc(F)c(F)c1 (stereo partly drawn) [Example 2-38, (3S,6R,9S,12R,15S,18R,21S,24R)-6-benzyl-18-(4-((3,4-difluorophenyl)(ethoxy)methyl)benzyl)-3,9,15,21-tetraisobutyl-4,10,12,16,22,24-hexamethyl-1,7,13,19-tetraoxa-4,10,16,22-tetraazacyclotetracosan-2,5,8,11,14,17,20,23-octaone]	0.03 µM	0.0006 µM	50	< 1 µM	0.5 µM	≤ 1 µM	–
CC(C)C[C@H]1C(=O)O[C@H](Cc2ccc([C@@H](c3ccc(OC(F)(F)F)cc3)N3CCOCC3)cc2)C(=O)N(C)[C@@H](CC(C)C)C(=O)O[C@H](C)C(=O)N(C)[C@@H](CC(C)C)C(=O)O[C@H](Cc2ccccc2)C(=O)N(C)[C@@H](CC(C)C)C(=O)O[C@@H](C)C(=O)N1C [Example 2-42, (3S,6R,9S,12R,15S,18R,21S,24S)-6-benzyl-3,9,15,21-tetraisobutyl-4,10,12,16,22,24-hexamethyl-18-[[4-[(S)-morpholino-[4-(trifluoromethoxy)phenyl]-methyl]phenyl]methyl]-1,7,13,19-tetraoxa-4,10,16,22-tetrazacyclotetracosane-2,5,8,11,14,17,20,23-octaone]	0.3 µM	0.0003 µM	1000	–	> 10 µM	–	–
CC(C)C[C@H]1C(=O)O[C@H](Cc2ccc(Cc3cccs3)cc2)C(=O)N(C)[C@@H](CC(C)C)C(=O)O[C@H](C)C(=O)N(C)[C@@H](CC(C)C)C(=O)O[C@H](Cc2ccc(Cc3cccs3)cc2)C(=O)N(C)[C@@H](CC(C)C)C(=O)O[C@H](C)C(=O)N1C [Example 3-4, (3S,6R,9S,12R,15S,18R,21S,24R)-3,9,15,21-tetraisobutyl-4,6,10,16,18,22-hexamethyl-12,24-bis(4-(thiophen-2-ylmethyl)benzyl)-1,7,13,19-tetraoxa-4,10,16,22-tetraazacyclotetracosan-2,5,8,11,14,17,20,23-octaone]	0.02 µM	0.0001 µM	200	–	0.5 µM	≤ 1 µM	< 1 µM
CC(C)C[C@H]1C(=O)O[C@H](Cc2ccc(Cc3ccco3)cc2)C(=O)N(C)[C@@H](CC(C)C)C(=O)O[C@H](C)C(=O)N(C)[C@@H](CC(C)C)C(=O)O[C@H](Cc2ccc(Cc3ccco3)cc2)C(=O)N(C)[C@@H](CC(C)C)C(=O)O[C@H](C)C(=O)N1C [Example 3-8, (3S,6R,9S,12R,15S,18R,21S,24R)-6,18-bis(4-(furan-2-ylmethyl)benzyl)-3,9,15,21-tetraisobutyl-4,10,12,16,22,24-hexamethyl-1,7,13,19-tetraoxa-4,10,16,22-tetraazacyclotetracosan-2,5,8,11,14,17,20,23-octaone]	0.01 µM	0.0003 µM	33.3	–	1 µM	≤ 1 µM	< 1 µM
CC(C)C[C@H]1C(=O)O[C@H](Cc2ccc(Cc3cncs3)cc2)C(=O)N(C)[C@@H](CC(C)C)C(=O)O[C@H](C)C(=O)N(C)[C@@H](CC(C)C)C(=O)O[C@H](Cc2ccc(Cc3cncs3)cc2)C(=O)N(C)[C@@H](CC(C)C)C(=O)O[C@H](C)C(=O)N1C [Example 3-12, (3S,6R,9S,12R,15S,18R,21S,24R)-3,9,15,21-tetraisobutyl-4,6,10,16,18,22-hexamethyl-12,24-bis(4-(thiazol-5-ylmethyl)benzyl)-1,7,13,19-tetraoxa-4,10,16,22-tetraazacyclotetracosan-2,5,8,11,14,17,20,23-octaone]	0.0007 µM	0.001 µM	0.7	–	3.3 µM	–	1 to 3.3 µM
CC(C)C[C@H]1C(=O)O[C@H](Cc2ccc(Cc3nccs3)cc2)C(=O)N(C)[C@@H](CC(C)C)C(=O)O[C@H](C)C(=O)N(C)[C@@H](CC(C)C)C(=O)O[C@H](Cc2ccc(Cc3nccs3)cc2)C(=O)N(C)[C@@H](CC(C)C)C(=O)O[C@H](C)C(=O)N1C [Example 3-17, (3S,6R,9S,12R,15S,18R,21S,24R)-3,9,15,21-tetraisobutyl-4,6,10,16,18,22-hexamethyl-12,24-bis(4-(thiazol-2-ylmethyl)benzyl)-1,7,13,19-tetraoxa-4,10,16,22-tetraazacyclotetracosan-2,5,8,11,14,17,20,23-octaone]	0.0003 µM	0.0003 µM	1	–	0.5 µM	≤ 1 µM	< 1 µM
CC(C)C[C@H]1C(=O)O[C@H](Cc2ccc(Cc3ncco3)cc2)C(=O)N(C)[C@@H](CC(C)C)C(=O)O[C@H](C)C(=O)N(C)[C@@H](CC(C)C)C(=O)O[C@H](Cc2ccc(Cc3ncco3)cc2)C(=O)N(C)[C@@H](CC(C)C)C(=O)O[C@H](C)C(=O)N1C [Example 3-18, (3S,6R,9S,12R,15S,18R,21S,24R)-3,9,15,21-tetraisobutyl-4,6,10,16,18,22-hexamethyl-12,24-bis(4-(oxazol-2-ylmethyl)benzyl)-1,7,13,19-tetraoxa-4,10,16,22-tetraazacyclotetracosan-2,5,8,11,14,17,20,23-octaone]	0.0002 µM	0.0001 µM	2	–	1 µM	≤ 1 µM	< 1 µM
